Assay results published in US9580399B2, “Geranyl flavonoid derivative with improved water solubility, a method for preparing the same, and a method for treating cancer using the same” (KOREA RESEARCH INSTITUTE OF BIOSCIENCE AND BIOTECHNOLOGY, priority 2014, dated 2017).
In brackets after ≈: the same amount, converted by molar mass.

What was measured:
[1] = Physicochemical properties: solubility; conditions: for Solubility: Insolubility: solvents in which insoluble; for Solubility: Fusibility: solvents in which soluble
[2] = test system: various human cancer cell lines; assay: Cancer cell growth inhibition (WST-1), all cell lines together; type: cell-based
Method: To investigate whether or not the geranyl flavonoid derivative of the present invention had cancer cell growth inhibiting effect, various human cancer cell lines were treated with CG-901-2 and then cancer cell growth was observed. Particularly, the human breast cancer cell lines MDA-MB-231 and MDA-MB-468, the prostate cancer cell line DU-145, the colorectal cancer cell line HCT116, the pancreatic cancer cell line AsPC-3, or the colon cancer cell line SW620 was distributed in 10% FBS medium, followed by culture in a 37° C. 5% CO2 incubator. The attached grown cells were collected by using trypsin-EDTA. The obtained cells were counted by hematocytometer, which were distributed in 96-well plate at the density of 5,000 cells/well (MDA-MB-231, MDA-MB-468, and DU-145) or at the density of 7,000 cells/well (HCT116 and SW620). 10% FBS medium was added to the plate, followed by culture in a 37° C. 5% CO2 incubator. 24 hours later, the cells were treated with the compound CG-901-2 prepared in Example <1-2> dissolved in DMSO at the concentration of 20 or 50 μg/ml. The negative control was treated with 0.1% DMSO. The cells were further cultured for 24 more hours. […] Then, OD450 was measured with ELISA reader (Bio-Rad) to investigate the time-dependent cancer cell growth rate. […]

STAT3 = biological target: T1, STAT3 (Homo sapiens, UniProt P40763); assay: Western blotting of STAT3 expression and phosphorylation in DU-145 cells; type: cell-based; conditions: DU-145, 5, 10 or 20 μM, 24 hours
T1 construct: the prostate cancer cell line DU-145 was distributed in three 60-mm plates; endogenous in cells; host or cells: DU-145 prostate cancer cells
T1 sequence (P40763 whole entry): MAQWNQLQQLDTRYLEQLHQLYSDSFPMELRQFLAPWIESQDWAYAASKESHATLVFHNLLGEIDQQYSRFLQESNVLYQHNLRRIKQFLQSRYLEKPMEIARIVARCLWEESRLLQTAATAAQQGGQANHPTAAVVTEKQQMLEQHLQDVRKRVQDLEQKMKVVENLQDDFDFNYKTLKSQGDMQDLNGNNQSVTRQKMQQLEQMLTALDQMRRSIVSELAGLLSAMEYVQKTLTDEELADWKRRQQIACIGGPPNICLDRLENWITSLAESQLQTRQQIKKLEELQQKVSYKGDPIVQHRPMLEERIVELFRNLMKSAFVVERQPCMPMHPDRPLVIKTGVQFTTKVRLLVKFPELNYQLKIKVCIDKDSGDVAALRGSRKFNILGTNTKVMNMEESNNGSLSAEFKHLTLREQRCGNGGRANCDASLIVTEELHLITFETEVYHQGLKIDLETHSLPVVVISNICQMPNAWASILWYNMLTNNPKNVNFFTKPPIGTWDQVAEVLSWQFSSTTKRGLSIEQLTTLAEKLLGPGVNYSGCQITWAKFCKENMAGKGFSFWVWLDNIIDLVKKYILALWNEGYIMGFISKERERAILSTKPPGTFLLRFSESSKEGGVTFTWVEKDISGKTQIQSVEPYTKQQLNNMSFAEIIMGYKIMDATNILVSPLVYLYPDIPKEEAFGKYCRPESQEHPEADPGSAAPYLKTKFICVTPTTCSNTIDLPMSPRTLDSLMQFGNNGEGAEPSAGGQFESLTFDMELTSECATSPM
Method: To investigate whether or not the novel synthesized geranyl flavonoid derivative of the present invention, CG-901-2, had the activity of inhibiting STAT3 protein activity by inhibiting STAT3 phosphorylation, Western blotting was performed to measure the expression of the phosphorylated STAT3. Particularly, the prostate cancer cell line DU-145 was distributed in three 60-mm plates containing 10% FBS (fetal bovine serum) medium at the density of 80,000 cells/plate, followed by culture in a 37° C. 5% CO2 incubator for 24 hours. Upon completion of the culture, the CG-901-2 compound prepared in Example <1-2> was treated to each plate at the concentration of 5, 10, or 20 μM. The negative control was treated with 0.25% DMSO, followed by culture for 24 hours. Then, the medium was discarded from each plate. The plate was then washed with PBS, to which 200 μl of Ripa lysis buffer was added. The cells attached on the plate were collected by using a scraper. […] The lysate mixture was placed in a 96-well plate, and […] was measured using ELISA reader in order to quantify the protein. After the quantification, the lysate containing the equal amount of protein was prepared, which was mixed with lysis buffer and 5× dye, leading to the preparation of a loading sample. […]

DU-145 tumor = assay: In vivo tumor growth inhibition in prostate cancer mouse model; conditions: 50 mg/kg oral, once a day, 10 times, compared with negative control
Method: Particularly, the human originated prostate cancer cell line DU-145 was inoculated in the serum-free medium, followed by culture in a 37° C. 5% CO2 incubator. The cultured DU-145 cells were prepared at the density of 3×10^7 cells/ml. Each BALB/c specific pathogen free female mouse (Nara Biotech Co.) at 6 weeks was administered with the cells at the dose of 9×10^6 cells/0.3 ml via subcutaneous injection in the auxiliary region between the right shoulder and breast wall, leading to the cancer cell transplantation. After the transplantation, the mouse was raised for 25 days until the generated tumor induced by the transplanted cancer cells grew to a measurable size. As a result, the prostate cancer mouse model was constructed. The tumor induced by the transplanted cancer cells was measured in three dimensions which were length, width, and height of the tumor, by using a vernier caliper, […], and the size of the tumor was calculated by the below mathematical formula 1. […] The tumor size was measured on day 0, day 10, day 14, day 16, day 18, day 21, day 23, and day 25. […] The size and weight of the control tumor was measured and compared with the above.

Mcl-1 = assay: Western blotting of STAT3 target protein expression in DU-145 cells; type: cell-based, human; conditions: DU-145, 20 μM
Method: (§1) To investigate the changes of the expression of STAT3 target genes according to the decrease of STAT3 protein phosphorylation caused by the treatment of geranyl flavonoid derivative CG901-2, the expressions of cyclin A that is well known as a STAT3 target protein, Mcl-1 (Induced myeloid leukemia cell differentiation protein-1), and survivin were examined. Particularly, DU-145 cells were treated with the compound CG-901-2 at the concentration of 20 μM by the same manner as described in Example <2-1>, followed by culture. Western blotting was performed to investigate the expressions of AD (cyclin A), Mcl-1, and survivin. β-actin was used as the control to compare the expression levels.

cyclin A = assay: as above; type: cell-based, human; conditions: DU-145, 20 μM
Method: as §1

survivin = assay: as above; type: cell-based, human; conditions: DU-145, 20 μM
Method: as §1

HCT116 = assay: Cancer cell growth inhibition (WST-1); type: cell-based; conditions: Homo sapiens, HCT-116; Colorectal cancer, 24 hours
Method: (§2) To investigate whether or not the geranyl flavonoid derivative of the present invention had cancer cell growth inhibiting effect, various human cancer cell lines were treated with CG-901-2 and then cancer cell growth was observed. Particularly, the human breast cancer cell lines MDA-MB-231 and MDA-MB-468, the prostate cancer cell line DU-145, the colorectal cancer cell line HCT116, the pancreatic cancer cell line AsPC-3, or the colon cancer cell line SW620 was distributed in 10% FBS medium, followed by culture in a 37° C. 5% CO2 incubator. The attached grown cells were collected by using trypsin-EDTA. The obtained cells were counted by hematocytometer, which were distributed in 96-well plate at the density of 5,000 cells/well (MDA-MB-231, MDA-MB-468, and DU-145) or at the density of 7,000 cells/well (HCT116 and SW620). 10% FBS medium was added to the plate, followed by culture in a 37° C. 5% CO2 incubator. 24 hours later, the cells were treated with the compound CG-901-2 prepared in Example <1-2> dissolved in DMSO at the concentration of 20 or 50 μg/ml. The negative control was treated with 0.1% DMSO. The cells were further cultured for 24 more hours. Then, 10 μl of the coloring agent, 2-[4-iodophenyl]-3-[4-nitrophenyl]-5-[2,4-disulfophenyl]-2H-tetrazolium (monosodium salt, WST-1; Roche) was treated to the cultured cells, followed by culture for 2 hours. Then, OD450 was measured with ELISA reader (Bio-Rad) to investigate the time-dependent cancer cell growth rate. For 24 hours from the treatment of the compound, the concentration of the compound that allowed only 50% of cancer cell population to survive was calculated based on the above growth rate, and the result was defined as GI50.

[3] = Cancer cell growth inhibition (WST-1); type: cell-based; conditions: Homo sapiens; Prostate cancer, 24 hours
Method: as §2

MDA-MB-468 = assay: Cancer cell growth inhibition (WST-1); type: cell-based; conditions: Homo sapiens, Breast cancer, 24 hours
Method: as §2

SW620 = assay: Cancer cell growth inhibition (WST-1); type: cell-based; conditions: Homo sapiens, SW-620; Colon cancer, 24 hours
Method: as §2

## CC(C)=CCC[C@]1(C)C=Cc2c(CCC(=O)c3ccc(OCCN(C)C)cc3O)ccc(O)c2O1 [CG-901-1, (R)-1-(4-(2-(dimethylamino)ethoxy)-2-hydroxyphenyl)-3-(8-hydroxy-2-methyl-2-(4-methylpent-3-enyl)-2H-chromen-5-yl)propan-1-one]
[1]
  Solubility: Insolubility: Hexane
  Solubility: Fusibility: Alcohol, DMSO
[1]; water
  solubility: 300 µM (≈ 144 µg/mL)

## CC(C)=CCC[C@]1(C)C=Cc2c(CCC(=O)c3ccc(OCCN(C)C)cc3O)ccc(O)c2O1.Cl [CG-901-2, (R)-2-(3-hydroxy-4-(3-(8-hydroxy-2-methyl-2-(4-methylpent-3-enyl)-2H-chromen-5-yl)propanoyl)phenoxy)-N,N-dimethylethanaminium chloride]
[2]; Homo sapiens, MDA-MB-231, MDA-MB-468, DU-145, HCT116, AsPC-3, SW620, read-out: GI50 concentration range of each cancer cell line
  GI50: 15 to 30 µM
[2]; compared with negative control
  cancer cell growth rate: reduced over the time
STAT3
  expression of STAT3: not changed
  phosphorylation of STAT3: reduced CG-901-2 dose-dependently
[1]
  Solubility: Insolubility: Hexane, Ethylacetate
  Solubility: Fusibility: Alcohol, H2O
DU-145 tumor
  tumor size growth inhibited: approximately 38.8%
DU-145 tumor; day 25
  weight of the tumor reduced: 40.5%
Mcl-1
  expression of Mcl-1: down-regulated
Cyclin A
  expression of cyclin A: down-regulated
survivin
  expression of survivin: down-regulated
HCT116
  GI50: 25 µM
[3]
  GI50: 20 µM
MDA-MB-468
  GI50: 30 µM
SW620
  GI50: 50 µM
